One test deals with human orexin 1 receptors (Homo sapiens (Human), UniProt O43613). Nature of the test: Calcium Accumulation in Cells (FLIPR), antagonism of orexin A. It counts as cell-based. The conditions noted are these: for Ki: antagonism of orexin A, Cheng-Prusoff corrected, read-out: FLIPR hOx1R Ki; for inhibition at 10 µM: measured at a concentration of 10 μM of compound, read-out: FLIPR hOx1R % inhibition value. The protocol: (§1) Calcium Accumulation in Cells (FLIPR):
Cells expressing human orexin 1 or human orexin 2 receptors, were seeded at 8,000 cells/well in 384 well black-walled clear bottom, poly-D-lysine coated plates. After 24 h, the medium was removed and cells were washed once with phosphate buffered saline and serum-deprived overnight in assay buffer (130 mM NaCl, 5.4 mM KCl, 1.8 mM CaCl2, 0.8 mM MgSO4, 0.9 mM NaH2PO4, 25 mM glucose, 20 mM HEPES, pH 7.4) containing bovine serum albumin (1% w/v).
On the day of the experiment, the cells seeded in black plates were treated with assay buffer containing the Ca^2+ sensitive fluorescent dye Fluo4-AM (2 μM), and probenecid (0.1 mM). After 1 h plates were washed twice with, and resuspended in, assay buffer containing probenecid (0.1 mM) using a multi plate washer. The plates were placed into a FLIPR II (Fluorometric Imaging Plate Reader, Molecular Devices, Sunnyvale, Calif., USA) and baseline fluorescence (fluorescence light units, FLU) was measured (5 measurements, 2 S each; laser excitation 488 nm at 0.6-1 W, CCD camera exposure 0.4 s) before addition of buffer alone (basal) or containing test compounds (either compound of formula (I) or (I′) alone, agonist alone or agonist in the presence of various concentrations of compounds of formula (I) or (I′)). Fluorescence measurements were then continued every 1 S for 120 S followed by every 4 S for 240 S.
(§2) The measurements were typically made in two sequences:
(§3) In the first round, compounds of formula (I) or (I′) were tested alone, to detect possible agonist activity. Compounds of formula I or I′ were tested usually in a concentration range from 10^−9 M to 10^−5 M.
(§4) In the second round, performed one hour later (to allow for equilibration), Orexin A was tested either in the absence (calibration curves, Orexin A agonist controls) or in the presence of compounds of formula (I) or (I′) to determine antagonism.

A further test addresses human orexin 2 receptors (Homo sapiens (Human), UniProt O43614). The test is described as above. In kind it is cell-based. The conditions noted are these: for Ki: antagonism of orexin A, Cheng-Prusoff corrected, read-out: FLIPR hOx2R Ki; for inhibition at 10 µM: measured at a concentration of 10 μM of compound, read-out: FLIPR hOx2R % inhibition value. The protocol: as §1
Cells expressing human orexin 1 or human orexin 2 receptors, were seeded at 8,000 cells/well in 384 well black-walled clear bottom, poly-D-lysine coated plates.
On the day of the experiment, the cells seeded in black plates were treated with assay buffer containing the Ca^2+ sensitive fluorescent dye Fluo4-AM (2 μM), and probenecid (0.1 mM). After 1 h plates were washed twice with, and resuspended in, assay buffer containing probenecid (0.1 mM) using a multi plate washer. […] Fluorescence measurements were then continued every 1 S for 120 S followed by every 4 S for 240 S.
as §2, §3, §4

Chain of human orexin 1 receptors (O43613 whole entry): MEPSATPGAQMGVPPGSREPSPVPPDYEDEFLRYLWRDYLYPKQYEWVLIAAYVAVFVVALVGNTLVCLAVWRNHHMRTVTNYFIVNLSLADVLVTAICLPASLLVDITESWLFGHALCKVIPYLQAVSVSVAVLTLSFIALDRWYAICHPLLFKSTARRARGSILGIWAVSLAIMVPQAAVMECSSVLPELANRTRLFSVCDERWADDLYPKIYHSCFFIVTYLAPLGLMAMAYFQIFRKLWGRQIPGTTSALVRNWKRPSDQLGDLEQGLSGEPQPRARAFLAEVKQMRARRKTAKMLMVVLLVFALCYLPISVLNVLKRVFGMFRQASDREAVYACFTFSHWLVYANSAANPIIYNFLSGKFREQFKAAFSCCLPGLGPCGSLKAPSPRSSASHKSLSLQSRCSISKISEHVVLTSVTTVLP
Chain of human orexin 2 receptors (O43614 whole entry): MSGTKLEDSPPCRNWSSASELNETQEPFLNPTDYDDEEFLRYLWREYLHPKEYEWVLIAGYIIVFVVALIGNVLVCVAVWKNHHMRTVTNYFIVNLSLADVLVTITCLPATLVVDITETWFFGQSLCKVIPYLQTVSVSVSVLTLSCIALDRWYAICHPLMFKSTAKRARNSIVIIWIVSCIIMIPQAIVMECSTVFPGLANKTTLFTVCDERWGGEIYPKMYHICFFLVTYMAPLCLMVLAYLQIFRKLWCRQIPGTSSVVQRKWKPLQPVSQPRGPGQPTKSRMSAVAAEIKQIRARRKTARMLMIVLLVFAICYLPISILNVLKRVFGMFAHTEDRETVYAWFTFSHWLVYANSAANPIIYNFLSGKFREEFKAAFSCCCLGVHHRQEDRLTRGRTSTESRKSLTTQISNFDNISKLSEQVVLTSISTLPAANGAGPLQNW

On to `Cc1cc2c(cn1)[C@@H](NC(=O)COc1cc(C)c3c(C4CC4)nn(C)c3n1)CC2` [Example 6.64, (S)-2-(3-cyclopropyl-1,4-dimethyl-1H-pyrazolo[3,4-b]pyridin-6-yloxy)-N-(3-methyl-6,7-dihydro-5H-cyclopenta[c]pyridin-7-yl)acetamide], for which the figures for the Ki on human orexin 1 receptors and on human orexin 2 receptors were 783 nM and 93 nM, respectively.

Regarding `Cc1ccc(CNC(=O)COc2cc(C)c3c(C4CC4)nn(C)c3n2)cc1` [Example 6.66, 2-(3-cyclopropyl-1,4-dimethyl-1H-pyrazolo[3,4-b]pyridin-6-yloxy)-N-(4-methylbenzyl)acetamide], the Ki at human orexin 1 receptors was 3890 nM; on human orexin 2 receptors it was 1300 nM.

In the case of `COc1ccccc1[C@H](C)NC(=O)COc1cc(C)c2c(C3CC3)nn(C)c2n1` [Example 7.13, (S)-2-(3-cyclopropyl-1,4-dimethyl-1H-pyrazolo[3,4-b]pyridin-6-yloxy)-N-(1-(2-methoxyphenyl)ethyl)acetamide], the Ki on human orexin 1 receptors was 1540 nM; at human orexin 2 receptors it was 450 nM.

In the case of `Cc1ccc([C@H](C)NC(=O)COc2cc(C(C)C)c3c(C4CC4)nn(C)c3n2)cc1` [Example 6.11, (S)-2-(3-cyclopropyl-4-isopropyl-1-methyl-1H-pyrazolo[3,4-b]pyridin-6-yloxy)-N-(1-p-tolylethyl)acetamide], the Ki on human orexin 1 receptors turned out to be 691 nM; at human orexin 2 receptors, 208 nM.

For `COc1ccc([C@H](C)NC(=O)COc2nc3c(cc2C)c(C2CC2)nn3C)cc1` [Example 6.76, (S)-2-(3-cyclopropyl-1,5-dimethyl-1H-pyrazolo[3,4-b]pyridin-6-yloxy)-N-(1-(4-methoxyphenyl)ethyl)acetamide], the inhibition at 10 µM on human orexin 1 receptors is 23%; at human orexin 2 receptors, 34%.

In the case of `Cc1cc(OCC(=O)NCCCn2ccnc2)nc2c1c(C1CC1)nn2C` [Example 7.3, N-(3-(1H-imidazol-1-yl)propyl)-2-(3-cyclopropyl-1,4-dimethyl-1H-pyrazolo[3,4-b]pyridin-6-yloxy)acetamide], the inhibition at 10 µM on human orexin 1 receptors is < 10%; on human orexin 2 receptors, 16%.

`CC(NC(=O)COc1cc(C(F)(F)F)c2c(-c3ccccc3)nn(C)c2n1)c1cccnc1` (stereo not shown) [Example 1.30, 2-(1-methyl-3-phenyl-4-(trifluoromethyl)-1H-pyrazolo[3,4-b]pyridin-6-yloxy)-N-(1-(pyridin-3-yl)ethyl)acetamide]: the results for the Ki on human orexin 1 receptors and at human orexin 2 receptors were 970 nM and 582 nM, respectively.

Regarding `Cc1cc(OCC(=O)N[C@H]2CCc3cc(OC(C)C)ccc32)nc2c1c(C1CC1)nn2C` [Example 6.69, (S)-2-(3-cyclopropyl-1,4-dimethyl-1H-pyrazolo[3,4-b]pyridin-6-yloxy)-N-(5-isopropoxy-2,3-dihydro-1H-inden-1-yl)acetamide], the inhibitory constant (Ki) at human orexin 1 receptors is 126 nM. Further, at human orexin 2 receptors, the inhibition at 10 µM turned out to be 31%.

Consider `C[C@H](NC(=O)COc1cc(C(F)(F)F)c2c(C3CC3)nn(C)c2n1)c1ccccc1` [Example 1.50, (S)-2-(3-cyclopropyl-1-methyl-4-(trifluoromethyl)-1H-pyrazolo[3,4-b]pyridin-6-yloxy)-N-(1-phenylethyl)acetamide], for which the Ki came to 730 nM on human orexin 1 receptors and 168 nM at human orexin 2 receptors.

Regarding `COc1cccc2c1CCCC2NC(=O)COc1cc(C)c2c(C3CC3)nn(C)c2n1` (stereo not shown) [Example 7.32, 2-(3-cyclopropyl-1,4-dimethyl-1H-pyrazolo[3,4-b]pyridin-6-yloxy)-N-(5-methoxy-1,2,3,4-tetrahydronaphthalen-1-yl)acetamide], the Ki turned out to be 138 nM on human orexin 1 receptors and 301 nM on human orexin 2 receptors.

Consider `Cc1ccc(C(C)NC(=O)COc2cc(C(F)(F)F)c3c(-c4ccccc4)nn(C)c3n2)o1` (stereo not shown) [Example 1.28, 2-(1-methyl-3-phenyl-4-(trifluoromethyl)-1H-pyrazolo[3,4-b]pyridin-6-yloxy)-N-(1-(5-methylfuran-2-yl)ethyl)acetamide], for which the Ki on human orexin 1 receptors stood at 941 nM; at human orexin 2 receptors it was 411 nM.

Turning to `COc1ccc([C@H](C)NC(=O)C(C)Oc2cc(C)c3c(C4CC4)nn(C)c3n2)cc1` (single isomer, unassigned) [Example 6.73, (S or R)-2-(3-cyclopropyl-1,4-dimethyl-1H-pyrazolo[3,4-b]pyridin-6-yloxy)-N-((S)-1-(4-methoxyphenyl)ethyl)propanamide], the inhibition at 10 µM at human orexin 1 receptors worked out at 43%; on human orexin 2 receptors it was 29%.

Regarding `Cn1nc(-c2ccccc2)c2c(C(F)(F)F)cc(OCC(=O)NCc3ccccc3)nc21` [Example 1.12, N-benzyl-2-(1-methyl-3-phenyl-4-(trifluoromethyl)-1H-pyrazolo[3,4-b]pyridin-6-yloxy)acetamide], the Ki on human orexin 1 receptors is 2500 nM; on human orexin 2 receptors, 1380 nM.

Take `COc1ccc(CNC(=O)COc2cc(C)c3c(C4CC4)nn(C)c3n2)cc1` [Example 6.67, 2-(3-cyclopropyl-1,4-dimethyl-1H-pyrazolo[3,4-b]pyridin-6-yloxy)-N-(4-methoxybenzyl)acetamide]: the inhibition at 10 µM was 29% at human orexin 1 receptors and 40% at human orexin 2 receptors.

`Cn1nc(-c2ccccc2)c2c(C(F)(F)F)cc(OCC(=O)NC3CC3)nc21` [Example 1.53, N-cyclopropyl-2-(1-methyl-3-phenyl-4-(trifluoromethyl)-1H-pyrazolo[3,4-b]pyridin-6-yloxy)acetamide]: the figures for the inhibition at 10 µM at human orexin 1 receptors and at human orexin 2 receptors were 14% and 36%, respectively.

`C[C@H](NC(=O)COc1cc(C2CC2)c2c(-c3ccccc3)nn(C)c2n1)c1ccccc1` [Example 1.47, (S)-2-(4-cyclopropyl-1-methyl-3-phenyl-1H-pyrazolo[3,4-b]pyridin-6-yloxy)-N-(1-phenylethyl)acetamide]: the inhibitory constant (Ki) on human orexin 1 receptors was determined as 441 nM; at human orexin 2 receptors, 561 nM.

In the case of `Cc1ccc2c(c1)C(NC(=O)COc1cc(C)c3c(C4CC4)nn(C)c3n1)CC2` (stereo not shown) [Example 7.28, 2-(3-cyclopropyl-1,4-dimethyl-1H-pyrazolo[3,4-b]pyridin-6-yloxy)-N-(6-methyl-2,3-dihydro-1H-inden-1-yl)acetamide], the inhibition at 10 µM on human orexin 1 receptors is 34%; on human orexin 2 receptors, 37%.

As for `C[C@H](NC(=O)COc1cc(C(F)(F)F)c2c(-c3ccncc3)nn(C)c2n1)c1ccccc1` [Example 1.25, (S)-2-(1-methyl-3-(pyridin-4-yl)-4-(trifluoromethyl)-1H-pyrazolo[3,4-b]pyridin-6-yloxy)-N-(1-phenylethyl)acetamide], the figures for the inhibition at 10 µM at human orexin 1 receptors and on human orexin 2 receptors were 54% and 52%, respectively.

In the case of `Cc1nn(C)c(C)c1C(C)NC(=O)COc1cc(C(F)(F)F)c2c(C3CC3)nn(C)c2n1` (stereo not shown) [Example 6.12, 2-(3-cyclopropyl-1-methyl-4-(trifluoromethyl)-1H-pyrazolo[3,4-b]pyridin-6-yloxy)-N-(1-(1,3,5-trimethyl-1H-pyrazol-4-yl)ethyl)acetamide], the figures for the Ki at human orexin 1 receptors and on human orexin 2 receptors were 680 nM and 165 nM, respectively.

For `Cc1cc(OCC(=O)NCCCc2ccccc2)nc2c1c(C1CC1)nn2C` [Example 6.50, 2-(3-cyclopropyl-1,4-dimethyl-1H-pyrazolo[3,4-b]pyridin-6-yloxy)-N-(3-phenylpropyl)acetamide], the inhibition at 10 µM at human orexin 1 receptors was 10%; on human orexin 2 receptors, 42%.

`C[C@H](NC(=O)COc1cc(C(F)(F)F)c2c(-c3cccnc3)nn(C)c2n1)c1ccccc1` [Example 1.34, (S)-2-(1-methyl-3-(pyridin-3-yl)-4-(trifluoromethyl)-1H-pyrazolo[3,4-b]pyridin-6-yloxy)-N-(1-phenylethyl)acetamide]: the inhibition constant Ki was 869 nM on human orexin 1 receptors and 323 nM at human orexin 2 receptors.

As for `Cn1nc(-c2ccccc2)c2c(C(F)(F)F)cc(OCC(=O)NC3CCC3)nc21` [Example 1.54, N-cyclobutyl-2-(1-methyl-3-phenyl-4-(trifluoromethyl)-1H-pyrazolo[3,4-b]pyridin-6-yloxy)acetamide], the inhibition at 10 µM was found to be 25% at human orexin 1 receptors and 42% at human orexin 2 receptors.

In the case of `COc1ccc2c(c1)C(NC(=O)COc1cc(C)c3c(C4CC4)nn(C)c3n1)CC2` (stereo not shown) [Example 7.9, 2-(3-cyclopropyl-1,4-dimethyl-1H-pyrazolo[3,4-b]pyridin-6-yloxy)-N-(6-methoxy-2,3-dihydro-1H-inden-1-yl)acetamide], the inhibitory constant (Ki) at human orexin 1 receptors was found to be 877 nM; on human orexin 2 receptors, 742 nM.

The values are drawn from US8742106B2 (Novartis AG, priority 2009, dated 2014).
